Our source for the IC50 and Ki values is ChEMBL document CHEMBL1909046, “DrugMatrix in vitro pharmacology data”.

One assay deals with T1, Adenosine receptor A3 (Homo sapiens, UniProt P0DMS8).
T1 sequence (P0DMS8 whole entry): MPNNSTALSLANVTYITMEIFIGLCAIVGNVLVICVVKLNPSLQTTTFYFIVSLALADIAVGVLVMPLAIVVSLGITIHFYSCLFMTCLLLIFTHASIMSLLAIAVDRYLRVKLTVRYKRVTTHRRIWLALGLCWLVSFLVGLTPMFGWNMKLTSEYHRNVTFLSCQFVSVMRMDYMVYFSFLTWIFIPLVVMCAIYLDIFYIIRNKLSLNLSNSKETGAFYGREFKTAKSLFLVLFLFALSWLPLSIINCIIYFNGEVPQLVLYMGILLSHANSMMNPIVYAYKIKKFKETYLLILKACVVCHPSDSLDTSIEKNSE
Format: cell membranes, CHO-K1, Membrane.

In the next assay the target is Vasopressin V1a receptor (Homo sapiens, UniProt P37288). The format is cell membranes, Membrane. The following applies: hek293. Further: in other assays of this panel Not Active means under 50% inhibition at 10 µM.
Assay [1] deals with Mitogen-activated protein kinase 1 (Homo sapiens, UniProt P28482). Kind of assay: DRUGMATRIX: Protein Serine/Threonine Kinase, ERK2 enzyme inhibition (substrate: Myelin Basic Protein). The following applies: Not Active = under 50% inhibition at 10 µM. Also on record: species or system Escherichia coli.
A short description of assay [2]: DRUGMATRIX: Glutamate, NMDA, Agonism radioligand binding (ligand: [3H] CGP-39653). Format: cell membranes, Rattus norvegicus, Wistar, Cerebral cortex, Membrane. To be noted: Not Active = under 50% inhibition at 10 µM.
In assay [3] the target is T2, Neuropeptide Y receptor type 1 (Homo sapiens, UniProt P25929). Further: in other assays of this panel Not Active means under 50% inhibition at 10 µM.
T2 sequence (P25929 whole entry): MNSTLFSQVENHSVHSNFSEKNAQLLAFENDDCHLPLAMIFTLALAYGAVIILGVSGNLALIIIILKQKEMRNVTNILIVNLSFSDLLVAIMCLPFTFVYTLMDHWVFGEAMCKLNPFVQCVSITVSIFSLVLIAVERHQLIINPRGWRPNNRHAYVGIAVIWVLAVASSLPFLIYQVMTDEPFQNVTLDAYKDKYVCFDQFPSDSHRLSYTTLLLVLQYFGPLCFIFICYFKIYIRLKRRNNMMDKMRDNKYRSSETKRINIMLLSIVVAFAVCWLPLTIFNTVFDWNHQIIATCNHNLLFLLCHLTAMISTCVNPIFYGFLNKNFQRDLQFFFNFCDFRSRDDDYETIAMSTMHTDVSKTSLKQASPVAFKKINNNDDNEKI
The format is cell membranes, Membrane. The following applies: sk-n-mc.

Assay [4] has as its target T3, C-X-C chemokine receptor type 2 (Homo sapiens, UniProt P25025). Further: in other assays of this panel Not Active means under 50% inhibition at 10 µM.
T3 sequence (P25025 whole entry): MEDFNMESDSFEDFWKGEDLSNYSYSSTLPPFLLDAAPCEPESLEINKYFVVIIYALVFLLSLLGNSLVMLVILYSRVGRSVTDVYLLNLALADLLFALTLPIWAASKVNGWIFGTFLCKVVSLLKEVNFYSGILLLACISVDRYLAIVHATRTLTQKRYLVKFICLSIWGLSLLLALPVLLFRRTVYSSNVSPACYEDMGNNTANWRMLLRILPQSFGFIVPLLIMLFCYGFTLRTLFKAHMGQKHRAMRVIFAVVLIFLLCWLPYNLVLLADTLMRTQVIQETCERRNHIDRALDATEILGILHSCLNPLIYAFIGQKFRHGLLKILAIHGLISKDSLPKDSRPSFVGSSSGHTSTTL
The format is cell membranes, Membrane. To be noted: cho-k1.

The target in assay [5] is T4, C-C chemokine receptor type 4 (Homo sapiens, UniProt P51679). Further: in other assays of this panel Not Active means under 50% inhibition at 10 µM.
T4 sequence (P51679 whole entry): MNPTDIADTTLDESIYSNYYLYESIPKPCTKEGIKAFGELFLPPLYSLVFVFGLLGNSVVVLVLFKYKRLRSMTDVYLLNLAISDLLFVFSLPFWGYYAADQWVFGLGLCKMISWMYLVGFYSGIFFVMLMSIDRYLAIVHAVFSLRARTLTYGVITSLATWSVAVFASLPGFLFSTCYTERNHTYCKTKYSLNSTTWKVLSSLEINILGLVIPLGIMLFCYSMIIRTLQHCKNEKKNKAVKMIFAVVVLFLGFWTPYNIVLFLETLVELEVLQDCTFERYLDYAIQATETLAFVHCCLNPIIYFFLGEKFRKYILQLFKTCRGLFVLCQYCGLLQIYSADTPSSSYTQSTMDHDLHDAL
Format: cell membranes, Membrane. The following applies: chem-1.

A further assay addresses T5, Interstitial collagenase (Homo sapiens, UniProt P03956).
T5 sequence (P03956 whole entry): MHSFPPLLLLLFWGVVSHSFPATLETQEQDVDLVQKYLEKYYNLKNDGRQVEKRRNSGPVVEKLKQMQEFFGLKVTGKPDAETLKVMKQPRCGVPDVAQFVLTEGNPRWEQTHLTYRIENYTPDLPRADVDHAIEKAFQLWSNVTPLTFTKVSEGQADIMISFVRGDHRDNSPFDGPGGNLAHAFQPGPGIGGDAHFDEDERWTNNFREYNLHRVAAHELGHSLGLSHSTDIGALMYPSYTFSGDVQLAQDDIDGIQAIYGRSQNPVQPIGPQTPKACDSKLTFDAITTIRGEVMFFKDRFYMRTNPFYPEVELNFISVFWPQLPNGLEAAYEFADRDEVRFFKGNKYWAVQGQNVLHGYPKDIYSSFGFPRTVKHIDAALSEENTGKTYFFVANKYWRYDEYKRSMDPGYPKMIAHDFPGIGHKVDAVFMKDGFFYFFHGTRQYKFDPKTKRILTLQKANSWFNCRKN
The format is tissue-based, Rheumatoid synovial fibroblasts.

The nature of assay [6]: DRUGMATRIX: Phorbol Ester radioligand binding (ligand: [3H] PDBu). Format: cell membranes, Mus musculus, ICR, Brain, Membrane. To be noted: Not Active = under 50% inhibition at 10 µM.
The target of assay [7] is T6, Cysteinyl leukotriene receptor 1 (Homo sapiens, UniProt Q9Y271). Further: in other assays of this panel Not Active means under 50% inhibition at 10 µM.
T6 sequence (Q9Y271 whole entry): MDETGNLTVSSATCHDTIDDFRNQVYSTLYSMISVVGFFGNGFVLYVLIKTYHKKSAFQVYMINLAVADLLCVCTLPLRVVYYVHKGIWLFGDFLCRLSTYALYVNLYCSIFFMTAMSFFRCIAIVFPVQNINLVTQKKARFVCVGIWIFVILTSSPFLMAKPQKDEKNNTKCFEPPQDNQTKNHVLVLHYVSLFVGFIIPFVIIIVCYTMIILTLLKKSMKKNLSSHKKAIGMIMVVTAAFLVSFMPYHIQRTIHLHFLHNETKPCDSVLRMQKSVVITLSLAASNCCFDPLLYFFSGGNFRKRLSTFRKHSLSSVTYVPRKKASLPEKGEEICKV
Format: cell membranes, CHO-K1, Membrane. To be noted: cho-k1.

For the next assay, the target named is T7, Leukotriene C4 synthase (Cavia porcellus, UniProt A6XA80).
T7 sequence (A6XA80 whole entry): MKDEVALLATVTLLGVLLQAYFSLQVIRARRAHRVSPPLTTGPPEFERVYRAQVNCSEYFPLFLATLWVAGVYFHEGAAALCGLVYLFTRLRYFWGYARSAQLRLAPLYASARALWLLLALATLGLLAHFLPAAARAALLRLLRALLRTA
The experiment in a line: biochemical. Format: tissue-based, Lung.

A short description of assay [8]: DRUGMATRIX: Glutamate, NMDA, Phencyclidine radioligand binding (ligand: [3H] TCP). The format is cell membranes, Rattus norvegicus, Wistar, Cerebral cortex, Membrane. The following applies: Not Active = under 50% inhibition at 10 µM.

Sequence of Vasopressin V1a receptor (P37288 whole entry): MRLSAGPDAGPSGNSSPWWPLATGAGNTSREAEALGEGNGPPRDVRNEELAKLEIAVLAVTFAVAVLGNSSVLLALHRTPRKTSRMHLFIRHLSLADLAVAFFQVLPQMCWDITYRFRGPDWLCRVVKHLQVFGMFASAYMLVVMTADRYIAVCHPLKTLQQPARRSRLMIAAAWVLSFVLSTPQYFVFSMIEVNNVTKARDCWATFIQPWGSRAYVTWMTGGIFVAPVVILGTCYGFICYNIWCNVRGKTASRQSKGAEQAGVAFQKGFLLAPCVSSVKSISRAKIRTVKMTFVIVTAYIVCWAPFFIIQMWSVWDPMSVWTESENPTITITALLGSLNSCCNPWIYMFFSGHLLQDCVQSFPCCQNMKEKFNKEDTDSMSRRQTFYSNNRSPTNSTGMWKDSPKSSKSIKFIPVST
Sequence of Mitogen-activated protein kinase 1 (P28482 whole entry): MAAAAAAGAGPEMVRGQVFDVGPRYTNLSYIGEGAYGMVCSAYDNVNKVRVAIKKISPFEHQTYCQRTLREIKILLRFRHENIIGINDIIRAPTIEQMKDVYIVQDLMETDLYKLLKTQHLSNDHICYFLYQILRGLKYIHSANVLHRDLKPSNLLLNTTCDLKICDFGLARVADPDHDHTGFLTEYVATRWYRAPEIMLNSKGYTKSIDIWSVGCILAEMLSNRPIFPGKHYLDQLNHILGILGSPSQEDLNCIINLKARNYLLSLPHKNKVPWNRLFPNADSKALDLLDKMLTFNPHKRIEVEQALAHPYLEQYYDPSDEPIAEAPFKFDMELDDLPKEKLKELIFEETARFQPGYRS

A word on the IC50: it is the concentration at which inhibition is half-maximal. As a reminder, the Ki is a measure of affinity in units of concentration, obtained from inhibition or displacement. Take `CO[C@@H]1[C@@H](O[C@@H]2O[C@H](C)[C@@H](O[C@H]3C[C@@](C)(O)[C@@H](OC(=O)CC(C)C)[C@H](C)O3)[C@H](N(C)C)[C@H]2O)[C@@H](CC=O)C[C@@H](C)[C@@H](O)/C=C/C=C/C[C@@H](C)OC(=O)C[C@H]1O` [KITASAMYCIN]: the IC50 result (at Adenosine receptor A3 (cho-k1); at Vasopressin V1a receptor; in assay [1]; in assay [2]; in assay [3]; in [4]) was “Not Active” each time. Moreover, the 50% inhibitory concentration (IC50) result (in assay [5]; at Interstitial collagenase; in [6]; in assay [7]; against Leukotriene C4 synthase; in assay [8]) was “Not Active” throughout. The Ki entry in assay [2], in [6] and in assay [8] was “Not Active” each time.

For `Oc1c(I)cc(I)c2cccnc12` [IODOQUINOL], the 50% inhibitory concentration (IC50) was 0.933 µM at Adenosine receptor A3 (read-out: IC50); “Not Active” against Vasopressin V1a receptor; 0.294 µM in [1] (read-out: IC50); “Not Active” in assay [2]; “Not Active” in assay [3]; “Not Active” in [4]. Moreover, the IC50 entry (in assay [5]; at Interstitial collagenase; in [6]; in assay [7]; at Leukotriene C4 synthase; in [8]) was “Not Active” throughout. Further, the Ki at Adenosine receptor A3 (read-out: Ki) is 0.527 µM; in assay [2], “Not Active”; in [6], “Not Active”; in assay [8], “Not Active”.

With `NC(CO)(CO)CO` [TROMETHAMINE], the IC50 result (against Adenosine receptor A3 (cho-k1); on Vasopressin V1a receptor; in assay [1]; in [2]; in [3]; in [4]) was “Not Active” throughout. Besides, the IC50 result (in assay [5]; against Interstitial collagenase; in assay [6]; in assay [7]; against Leukotriene C4 synthase; in assay [8]) was “Not Active” throughout. Moreover, the Ki result in [2], in assay [6] and in [8] was “Not Active” each time.

Regarding `O=[N+]([O-])c1cc([As](=O)(O)O)ccc1O` [ROXARSONE], the half-maximal inhibitory concentration (IC50) result (on Adenosine receptor A3 (cho-k1); against Vasopressin V1a receptor; in [1]; in assay [2]; in [3]; in [4]) was “Not Active” each time. Besides, the IC50 result (in [5]; against Interstitial collagenase; in assay [6]; in assay [7]; against Leukotriene C4 synthase; in assay [8]) was “Not Active” each time. For the same compound, the Ki entry (at Adenosine receptor A3 (cho-k1); on Vasopressin V1a receptor; in assay [1]; in assay [2]; in [3]; in assay [4]) was “Not Active” each time. The Ki entry (in assay [5]; on Interstitial collagenase; in assay [6]; in [7]; on Leukotriene C4 synthase; in [8]) was “Not Active” each time.

Consider `Cc1ncc([N+](=O)[O-])n1CC(C)O` (stereo unspecified) [SECNIDAZOLE], for which the IC50 result (on Adenosine receptor A3 (cho-k1); against Vasopressin V1a receptor; in assay [1]; in assay [2]; in assay [3]; in assay [4]) was “Not Active” throughout. In addition, the IC50 result (in assay [5]; on Interstitial collagenase; in [6]; in assay [7]; at Leukotriene C4 synthase; in assay [8]) was “Not Active” in each case. Besides, the Ki result in assay [2], in assay [6] and in [8] was “Not Active” in each case.

For the compound `CC1=C(/C=C/C(C)=C/C=C/C(C)=C\C(=O)O)C(C)(C)CCC1` [ISOTRETINOIN], the IC50 on Adenosine receptor A3 (read-out: IC50) is 4.17 µM; against Vasopressin V1a receptor it was “Not Active”; in [1] (read-out: IC50) it was 0.462 µM; in [2] it was “Not Active”; in [3] it was “Not Active”; in assay [4] it was “Not Active”. Moreover, the IC50 result (in assay [5]; against Interstitial collagenase; in [6]; in assay [7]; against Leukotriene C4 synthase; in [8]) was “Not Active” each time. Moreover, the Ki was 2.36 µM at Adenosine receptor A3 (read-out: Ki), “Not Active” in assay [2], “Not Active” in assay [6] and “Not Active” in assay [8].
